Assay results from ChEMBL document CHEMBL1201861, “Genomics of Drug Sensitity in Cancer screening data, Wellcome Trust Sanger Institute”.

Key:
Assay in all cases: cells
Type in all cases: functional, cell-based, Homo sapiens
[1] = system: COLO-741
Description: SANGER: Inhibition of human COLO-741 cell growth in a cell viability assay.

[2] = system: CaR-1;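 note: growth inhibition of human CaR-1 cancer cells, read out with a cell viability assay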
Description: SANGER: Inhibition of human CaR-1 cell growth in a cell viability assay.

[3] = system: DOK;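 note: cell viability assay read-out, values reflect inhibition of cell growth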
Description: SANGER: Inhibition of human DOK cell growth in a cell viability assay.

[4] = system: DoTc2-4510
[5] = system: EGI-1;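 note: cell viability readout used to gauge growth inhibition of EGI-1 cells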
Description: SANGER: Inhibition of human EGI-1 cell growth in a cell viability assay.

[6] = system: FTC-133
[7] = system: HOP-92;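 note: cell viability readout, with IC50 reflecting inhibition of HOP-92 cell growth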
Description: SANGER: Inhibition of human HOP-92 cell growth in a cell viability assay.

[8] = system: Huh-7;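 note: HuH-7 cell growth inhibition, read out with a cell viability assay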
Description: SANGER: Inhibition of human HuH-7 cell growth in a cell viability assay.

[9] = system: KP-N-YN;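 note: growth inhibition of KP-N-YN cells, read out with a cell viability assay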
Description: SANGER: Inhibition of human KP-N-YN cell growth in a cell viability assay.

[10] = system: KU-19-19
Description: SANGER: Inhibition of human KU-19-19 cell growth in a cell viability assay.

[11] = system: KYSE-270;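 note: cell growth inhibition measured with a viability assay in the human KYSE-270 line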
Description: SANGER: Inhibition of human KYSE-270 cell growth in a cell viability assay.

[12] = system: LCLC-97TM1;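 note: cell viability assay measuring growth inhibition of human LCLC-97TM1 cells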
Description: SANGER: Inhibition of human LCLC-97TM1 cell growth in a cell viability assay.

[13] = system: MDA-MB-231
Description: SANGER: Inhibition of human MDA-MB-231 cell growth in a cell viability assay.

[14] = system: MDA-MB-415
[15] = system: MFE-280;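 note: growth inhibition of MFE-280 cells, determined with a cell viability readout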
Description: SANGER: Inhibition of human MFE-280 cell growth in a cell viability assay.

[16] = system: MOLT-13;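 note: IC50 for suppression of MOLT-13 cell growth, read out with a cell viability assay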
Description: SANGER: Inhibition of human MOLT-13 cell growth in a cell viability assay.

[17] = system: NCI-H1573;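 note: growth inhibition of NCI-H1573 cells, read out with a cell viability assay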
Description: SANGER: Inhibition of human NCI-H1573 cell growth in a cell viability assay.

[18] = system: NCI-H1623;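 note: cell viability assay used as the read-out for growth inhibition of NCI-H1623 cells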
Description: SANGER: Inhibition of human NCI-H1623 cell growth in a cell viability assay.

[19] = system: NCI-H1755;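 note: cell viability readout used to measure growth inhibition of NCI-H1755 cells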
Description: SANGER: Inhibition of human NCI-H1755 cell growth in a cell viability assay.

[20] = system: NCI-H1993;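 note: growth inhibition of the cancer cell line, assessed with a cell viability assay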
Description: SANGER: Inhibition of human NCI-H1993 cell growth in a cell viability assay.

[21] = system: NCI-H2030;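 note: growth inhibition of human NCI-H2030 cells, read out by a cell viability assay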
Description: SANGER: Inhibition of human NCI-H2030 cell growth in a cell viability assay.

[22] = system: NCI-H441;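 note: growth inhibition of NCI-H441 cells, read out with a cell viability assay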
Description: SANGER: Inhibition of human NCI-H441 cell growth in a cell viability assay.

[23] = system: OAW-42;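 note: growth inhibition of OAW-42 cells, read out with a cell viability assay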
Description: SANGER: Inhibition of human OAW-42 cell growth in a cell viability assay.

[24] = system: OE33;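 note: growth inhibition of human OE33 cells, measured by a cell viability assay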
Description: SANGER: Inhibition of human OE33 cell growth in a cell viability assay.

[25] = system: S-117
Description: SANGER: Inhibition of human S-117 cell growth in a cell viability assay.

[26] = system: SK-MES-1;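 note: growth inhibition of human SK-MES-1 cells, read out with a cell viability assay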
Description: SANGER: Inhibition of human SK-MES-1 cell growth in a cell viability assay.

[27] = system: SW13;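 note: IC50 is inhibition of SW13 cell growth, read out with a cell viability assay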
Description: SANGER: Inhibition of human SW13 cell growth in a cell viability assay.

[28] = system: SAOS-2;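 note: growth inhibition of human Saos-2 cells determined by a cell viability assay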
Description: SANGER: Inhibition of human Saos-2 cell growth in a cell viability assay.

[29] = system: 8305C
Description: SANGER: Inhibition of human 8305C cell growth in a cell viability assay.

[30] = system: A2058;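 note: reduction of A2058 cell growth, read out with a viability assay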
Description: SANGER: Inhibition of human A2058 cell growth in a cell viability assay.

[31] = system: BFTC-905
Description: SANGER: Inhibition of human BFTC-905 cell growth in a cell viability assay.

[32] = system: BPH-1;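 note: cell viability assay measuring growth inhibition of human BPH-1 cells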
Description: SANGER: Inhibition of human BPH-1 cell growth in a cell viability assay.

[33] = system: BT-20;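 note: cell viability assay measuring suppression of growth in human BT-20 cells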
Description: SANGER: Inhibition of human BT-20 cell growth in a cell viability assay.

[34] = system: TYK-nu;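 note: growth inhibition of human TYK-nu cells, read out by a cell viability assay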
Description: SANGER: Inhibition of human TYK-nu cell growth in a cell viability assay.

[35] = system: CFPAC-1;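 note: cell viability readout used to gauge suppression of CFPAC-1 cell proliferation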
Description: SANGER: Inhibition of human CFPAC-1 cell growth in a cell viability assay.

[36] = system: COLO-679
Description: SANGER: Inhibition of human COLO-679 cell growth in a cell viability assay.

CO[C@H]1C[C@@H]2CC[C@@H](C)[C@@](O)(O2)C(=O)C(=O)N2CCCC[C@H]2C(=O)O[C@H]([C@H](C)C[C@@H]2CC[C@@H](OC(=O)C(C)(CO)CO)[C@H](OC)C2)CC(=O)[C@H](C)/C=C(\C)[C@@H](O)[C@@H](OC)C(=O)[C@H](C)C[C@H](C)/C=C/C=C/C=C/1C [TEMSIROLIMUS]
IC50 ([1]; Homo sapiens, COLO-741): > 0.2 µM
IC50 ([2]; Homo sapiens, CaR-1): > 0.2 µM
IC50 ([3]; Homo sapiens, DOK): 0.041 µM
IC50 ([4]; Homo sapiens, DoTc2-4510): > 0.2 µM
IC50 ([5]; Homo sapiens, EGI-1): 0.022 µM
IC50 ([6]; Homo sapiens, FTC-133): 0.0506 µM
IC50 ([7]; Homo sapiens, HOP-92): > 0.2 µM
IC50 ([8]; Homo sapiens, Huh-7): 0.0123 µM
IC50 ([9]; Homo sapiens, KP-N-YN): > 0.2 µM
IC50 ([10]; Homo sapiens, KU-19-19): > 0.2 µM
IC50 ([11]; Homo sapiens, KYSE-270): 0.164 µM
IC50 ([12]; Homo sapiens, LCLC-97TM1): > 0.2 µM
IC50 ([13]; Homo sapiens, MDA-MB-231): > 0.2 µM
IC50 ([14]; Homo sapiens, MDA-MB-415): 0.036 µM
IC50 ([15]; Homo sapiens, MFE-280): > 0.2 µM
IC50 ([16]; Homo sapiens, MOLT-13): > 0.2 µM
IC50 ([17]; Homo sapiens, NCI-H1573): > 0.2 µM
IC50 ([18]; Homo sapiens, NCI-H1623): > 0.2 µM
IC50 ([19]; Homo sapiens, NCI-H1755): > 0.2 µM
IC50 ([20]; Homo sapiens, NCI-H1993): > 0.2 µM
IC50 ([21]; Homo sapiens, NCI-H2030): 0.0981 µM
IC50 ([22]; Homo sapiens, NCI-H441): > 0.2 µM
IC50 ([23]; Homo sapiens, OAW-42): > 0.2 µM
IC50 ([24]; Homo sapiens, OE33): > 0.2 µM
IC50 ([25]; Homo sapiens, S-117): 0.105 µM
IC50 ([26]; Homo sapiens, SK-MES-1): > 0.2 µM
IC50 ([27]; Homo sapiens, SW13): 0.186 µM
IC50 ([28]; Homo sapiens, SAOS-2): > 0.2 µM
IC50 ([29]; Homo sapiens, 8305C): > 0.2 µM
IC50 ([30]; Homo sapiens, A2058): 0.0266 µM
IC50 ([31]; Homo sapiens, BFTC-905): > 0.2 µM
IC50 ([32]; Homo sapiens, BPH-1): 0.0324 µM
IC50 ([33]; Homo sapiens, BT-20): > 0.2 µM
IC50 ([34]; Homo sapiens, TYK-nu): 0.000778 µM
IC50 ([35]; Homo sapiens, CFPAC-1): > 0.2 µM
IC50 ([36]; Homo sapiens, COLO-679): > 0.2 µM

Nc1cccc2c1CN(C1CCC(=O)NC1=O)C2=O (centres undefined) [LENALIDOMIDE]
IC50 ([1]; Homo sapiens, COLO-741): > 5 µM
IC50 ([2]; Homo sapiens, CaR-1): > 5 µM
IC50 ([3]; Homo sapiens, DOK): > 5 µM
IC50 ([4]; Homo sapiens, DoTc2-4510): > 5 µM
IC50 ([5]; Homo sapiens, EGI-1): > 5 µM
IC50 ([6]; Homo sapiens, FTC-133): > 5 µM
IC50 ([7]; Homo sapiens, HOP-92): > 5 µM
IC50 ([8]; Homo sapiens, Huh-7): > 5 µM
IC50 ([9]; Homo sapiens, KP-N-YN): > 5 µM
IC50 ([10]; Homo sapiens, KU-19-19): > 5 µM
IC50 ([11]; Homo sapiens, KYSE-270): > 5 µM
IC50 ([12]; Homo sapiens, LCLC-97TM1): > 5 µM
IC50 ([13]; Homo sapiens, MDA-MB-231): > 5 µM
IC50 ([14]; Homo sapiens, MDA-MB-415): > 5 µM
IC50 ([15]; Homo sapiens, MFE-280): > 5 µM
IC50 ([16]; Homo sapiens, MOLT-13): > 5 µM
IC50 ([17]; Homo sapiens, NCI-H1573): > 5 µM
IC50 ([18]; Homo sapiens, NCI-H1623): > 5 µM
IC50 ([19]; Homo sapiens, NCI-H1755): > 5 µM
IC50 ([20]; Homo sapiens, NCI-H1993): > 5 µM
IC50 ([21]; Homo sapiens, NCI-H2030): > 5 µM
IC50 ([22]; Homo sapiens, NCI-H441): > 5 µM
IC50 ([23]; Homo sapiens, OAW-42): > 5 µM
IC50 ([24]; Homo sapiens, OE33): > 5 µM
IC50 ([25]; Homo sapiens, S-117): > 5 µM
IC50 ([26]; Homo sapiens, SK-MES-1): > 5 µM
IC50 ([27]; Homo sapiens, SW13): > 5 µM
IC50 ([28]; Homo sapiens, SAOS-2): > 5 µM
IC50 ([29]; Homo sapiens, 8305C): > 5 µM
IC50 ([30]; Homo sapiens, A2058): > 5 µM
IC50 ([31]; Homo sapiens, BFTC-905): > 5 µM
IC50 ([32]; Homo sapiens, BPH-1): > 5 µM
IC50 ([33]; Homo sapiens, BT-20): > 5 µM
IC50 ([34]; Homo sapiens, TYK-nu): > 5 µM
IC50 ([35]; Homo sapiens, CFPAC-1): > 5 µM
IC50 ([36]; Homo sapiens, COLO-679): > 5 µM

CISPLATIN
IC50 ([1]; colo-741): 28.7 µM
IC50 ([2]; car-1): 755 µM
IC50 ([3]; dok): 12.5 µM
IC50 ([4]; dotc2-4510): 63.6 µM
IC50 ([5]; egi-1): 11.1 µM
IC50 ([6]; ftc-133): 4.77 µM
IC50 ([7]; hop-92): 3.51 µM
IC50 ([8]; huh-7): 40.9 µM
IC50 ([9]; kp-n-yn): 581 µM
IC50 ([10]; ku-19-19): 10.1 µM
IC50 ([11]; kyse-270): 9.08 µM
IC50 ([12]; lclc-97tm1): 19.8 µM
IC50 ([13]; mda-mb-231): 264 µM
IC50 ([14]; mda-mb-415): 48.4 µM
IC50 ([15]; mfe-280): 626 µM
IC50 ([16]; molt-13): 381 µM
IC50 ([17]; nci-h1573): 112 µM
IC50 ([18]; nci-h1623): 46.9 µM
IC50 ([19]; nci-h1755): 207 µM
IC50 ([20]; nci-h1993): 1350 µM
IC50 ([21]; nci-h2030): 11.9 µM
IC50 ([22]; nci-h441): 199 µM
IC50 ([23]; oaw-42): 8.63 µM
IC50 ([24]; oe33): 22.5 µM
IC50 ([25]; s-117): 4.53 µM
IC50 ([26]; sk-mes-1): 129 µM
IC50 ([27]; sw13): 14.3 µM
IC50 ([28]; saos-2): 36.3 µM
IC50 ([29]; 8305c): 61.6 µM
IC50 ([30]; a2058): 17.5 µM
IC50 ([31]; bftc-905): 2.58 µM
IC50 ([32]; bph-1): 17.9 µM
IC50 ([33]; bt-20): 213 µM
IC50 ([34]; tyk-nu): 15.8 µM
IC50 ([35]; cfpac-1): 35.2 µM
IC50 ([36]; colo-679): 765 µM

CC(C)CCN1c2nc(Nc3cc(F)c(O)c(F)c3)ncc2N(C)C(=O)C1C (centres undefined)
IC50 ([1]; Homo sapiens, COLO-741): > 5 µM
IC50 ([2]; Homo sapiens, CaR-1): > 5 µM
IC50 ([3]; Homo sapiens, DOK): 3.77 µM
IC50 ([4]; Homo sapiens, DoTc2-4510): > 5 µM
IC50 ([5]; Homo sapiens, EGI-1): > 5 µM
IC50 ([6]; Homo sapiens, FTC-133): > 5 µM
IC50 ([7]; Homo sapiens, HOP-92): > 5 µM
IC50 ([8]; Homo sapiens, Huh-7): > 5 µM
IC50 ([9]; Homo sapiens, KP-N-YN): > 5 µM
IC50 ([10]; Homo sapiens, KU-19-19): 3.6 µM
IC50 ([11]; Homo sapiens, KYSE-270): > 5 µM
IC50 ([12]; Homo sapiens, LCLC-97TM1): 2.6 µM
IC50 ([13]; Homo sapiens, MDA-MB-231): 4.72 µM
IC50 ([14]; Homo sapiens, MDA-MB-415): > 5 µM
IC50 ([15]; Homo sapiens, MFE-280): > 5 µM
IC50 ([16]; Homo sapiens, MOLT-13): 3.97 µM
IC50 ([17]; Homo sapiens, NCI-H1573): > 5 µM
IC50 ([18]; Homo sapiens, NCI-H1623): > 5 µM
IC50 ([19]; Homo sapiens, NCI-H1755): > 5 µM
IC50 ([20]; Homo sapiens, NCI-H1993): > 5 µM
IC50 ([21]; Homo sapiens, NCI-H2030): > 5 µM
IC50 ([22]; Homo sapiens, NCI-H441): > 5 µM
IC50 ([23]; Homo sapiens, OAW-42): > 5 µM
IC50 ([24]; Homo sapiens, OE33): > 5 µM
IC50 ([25]; Homo sapiens, S-117): > 5 µM
IC50 ([26]; Homo sapiens, SK-MES-1): 3.73 µM
IC50 ([27]; Homo sapiens, SW13): > 5 µM
IC50 ([28]; Homo sapiens, SAOS-2): > 5 µM
IC50 ([29]; Homo sapiens, 8305C): 3.89 µM
IC50 ([30]; Homo sapiens, A2058): > 5 µM
IC50 ([31]; Homo sapiens, BFTC-905): 1.56 µM
IC50 ([32]; Homo sapiens, BPH-1): 2.13 µM
IC50 ([33]; Homo sapiens, BT-20): > 5 µM
IC50 ([34]; Homo sapiens, TYK-nu): 3.54 µM
IC50 ([35]; Homo sapiens, CFPAC-1): > 5 µM
IC50 ([36]; Homo sapiens, COLO-679): > 5 µM
